Results: paper PMC6138628, “Enhanced uptake of gH625 by blood brain barrier compared to liver in vivo: characterization of the mechanism by an in vitro model and implications for delivery” (Scientific Reports, 2018)
Where two headings read alike, the source gives them in different places. Residues, ends and D or L forms follow the SMILES beside them.

Columns and labels:
[1] = Membrane fluidity, Laurdan generalized polarization (GP); type: physicochemical; details: P/L molar ratio 0.5, after 10 min, 37 °C, 5 mM HEPES, 100 mM NaCl, pH 7.4
Protocol: The samples were vortexed and lyophilized overnight.
LUVs containing Laurdan were prepared to determine membrane fluidity. In order to insert Laurdan into the bilayer, it was added to lipid films before hydration. The peptide gH625 was added to LUVs at a P/L molar ratio of 0.5 and after 10 min the fluorescence spectra were recorded using a 1 cm path length quartz cell, thermostated at 25 °C or 37 °C. Spectra were corrected for the baseline signal. Laurdan emission spectra were recorded from 400 to 550 nm with λex 365 nm in the absence or presence of gH625 in 5 mM HEPES, 100 mM NaCl buffer (pH 7.4). Laurdan emission can shift from 440, in the ordered phase, to 490 in the disordered phase. The excitation generalized polarization (GP) was calculated as GP = (I440 − I490)/(I440 + I490) where I440 and I490 are the fluorescence intensities at the maximum emission wavelength in the ordered (λem 440 nm) and disordered (λem 490 nm) phases.
LUVs fluidity before and after the addition of gH625 were obtained using the fluorescent probe Laurdan[47],[48]. […] The Generalized Polarization (GP) is a parameter commonly used to quantify the change in the lipid fluidity. […] The GP parameter allowed quantifying the effect of the peptide (Table 1). […]

[2] = 0.1 mM lipid, 37 °C, 100% = Triton X-100, repeated at least three times
Protocol: Large unilamellar vesicles (LUVs) and small unilamellar vesicles (SUVs) consisting of PI/DOPE/DPPC/PS/Chol/SM (4/23/30/8/20/15 ratio in moles)[33],[34], DSPC/POPE/PI/PS/lysoPC/SM/DOPG (37/21/7/9/3/18/5 ratio in moles)[35], and when required containing Rho-PE and NBD-PE, were formulated in 5 mM HEPES, 100 mM NaCl, pH 7.4. LUVs were prepared using the extrusion method as previously reported; lipids were first dissolved in chloroform, then dried under a nitrogen gas stream and lyophilized overnight. For fluorescence experiments, buffer was added to dry lipid films and vortexed for 1 h; then the lipid suspension was freeze-thawed 6 times and extruded 20 times through polycarbonate membranes with 0.1 μm diameter pores to obtain LUVs. For circular dichroism measurements, peptide samples in SUVs were prepared using the following protocol. Lipids were dissolved in chloroform and added to an equal volume of peptide solution dissolved in TFE containing appropriate peptide concentration. The samples were vortexed and lyophilized overnight. The dry samples were rehydrated with phosphate buffer (5 mM) for 1 h and sonicated for 30 min.
Membrane lipid mixing was followed by the resonance energy transfer assay (FRET)[39].

[3] = outer NBD reduced with sodium dithionite
Protocol: A modification of the lipid mixing experiment allowed to measure peptide-induced mixing of the inner monolayer. A concentration of 0.6% mol for each of the fluorescent probes within the liposome was used. In order to completely reduce the NBD located at the outer surface of the membrane, LUVs were treated with sodium dithionite 100 mM (from a stock solution of 1 M dithionite in 1 M TRIS, pH 10.0) for approximately 1 h on ice in the dark. Excess sodium dithionite was removed by size exclusion chromatography through a Sephadex G-75 50 DNA Grade filtration column (GE Healthcare) eluted with a buffer containing 10 mM TRIS, 100 mM NaCl, and 1 mM EDTA, pH 7.4.
In the inner monolayer assay, the fluorescence from the vesicle membranes’ outer monolayer is eliminated by the addition of an aqueous reducing agent; while in the lipid mixing experiment we measured both hemi-fusion and complete fusion, in this experiment we determined only the extent of lipid mixing between the inner monolayers.

ANTS/DPX leakage assay = details: 0.1 mM lipid, 5 mM Hepes, 100 mM NaCl, pH 7.4, 37 °C, data not shown
Protocol: The ANTS/DPX experiment was used to evaluate leakage of encapsulated dyes induced by the peptide. The peptide in 5 mM Hepes and 100 mM NaCl at pH 7.4 was added to the stirred vesicle suspension (0.1 mM lipid) containing ANTS and DPX at 37 °C. Details of this assay have been previously reported.

[4] = previous work; cited from earlier work
Source text: In general a high accumulation in the target tissue results in an improved therapeutic effect, while a large amount of drug distributed to non-target organs may cause unwanted toxicity and/or side effects. It is thus fundamental to reduce liver metabolism and renal clearance to produce prolonged blood circulation with an i ...

CC[C@H](C)[C@H](NC(=O)[C@H](CC(C)C)NC(=O)[C@H](C)NC(=O)[C@H](CC(N)=O)NC(=O)[C@H](Cc1ccc(O)cc1)NC(=O)[C@H](Cc1c[nH]cn1)NC(=O)[C@H](C)NC(=O)[C@H](Cc1c[nH]c2ccccc12)NC(=O)[C@H](CCCNC(=N)N)NC(=O)[C@@H](NC(=O)[C@H](CC(C)C)NC(=O)[C@@H](NC(=O)[C@H](CO)NC(=O)[C@H](C)NC(=O)[C@H](CC(C)C)NC(=O)CNC(=O)[C@@H](N)Cc1c[nH]cn1)[C@@H](C)O)[C@@H](C)O)C(=O)N[C@@H](CCCNC(=N)N)C(=O)N[C@@H](C)C(=O)N[C@@H](Cc1ccccc1)C(N)=O [gH625] (H-HGLASTLTRWAHYNALIRAF-NH2)
Generalized polarization (GP) value, +gH625 ([1]; Laurdan in LUVs DSPC/POPE/PI/PS/lysoPC/SM/DOPG (37/21/7/9/3/18/5), no peptide 37 °C: 0.40): 0.49 | Generalized polarization (GP) value, +gH625 ([1]; Laurdan in LUVs PI/DOPE/DPPC/PS/Chol/SM (4/23/30/8/20/15), no peptide 37 °C: 0.19): 0.15 | Maximum peptide/lipid ratio (P/L), complete fusion of vesicles ([2]; LUVs DSPC/POPE/PI/PS/lysoPC/SM/DOPG (37/21/7/9/3/18/5)): 0.7 | Maximum peptide/lipid ratio (P/L), complete fusion of vesicles ([2]; LUVs PI/DOPE/DPPC/PS/Chol/SM (4/23/30/8/20/15)): 0.05 | Inner monolayer fusion ([3]; at a P/L ratio corresponding to 100% of fusion, BBB mimicking LUVs): approximately 20% | Inner monolayer fusion ([3]; at a peptide/lipid ratio with 100% of lipid mixing, liver mimicking LUVs): 100% | Leakage of encapsulated dyes (ANTS/DPX) (ANTS/DPX leakage assay; BBB mimicking LUVs): did not present any leakage | Leakage of encapsulated dyes (ANTS/DPX) (ANTS/DPX leakage assay; liver mimicking LUVs): did not present any leakage | Alterations of cell viability or maximal mitochondrial oxidative capacity linked to uptake [4]: not linked to alterations of cell viability or maximal mitochondrial oxidative capacity
